From patent US10836743B2, “Fluorinated cyclopropylamine compound, preparation method therefor, pharmaceutical composition thereof, and uses thereof” (SHANGHAI INSTITUTE OF MATERIA MEDICA, CHINESE ACADEMY OF …, priority 2016, dated 2020)
Several values for one entry are separate records, joined by “and”; a condition that tells them apart may be missing. Identical values can stand only once. Like-named read-outs stand apart in the source and are kept apart here.

What was measured:
[1] = test system: CD86 expression in leukemia cell line MV4-11; assay: CD86 gene expression activation test (quantitative real-time PCR); format: cell-based, human; conditions: CD86 activation fold, 24 h
Protocol: CD86 Gene Expression Activation Test: Experimental Principle:
Quantitative Real-time PCR is a method for measuring the total amount of the product after each polymerase chain reaction (PCR) cycle by using fluorescent chemicals in a DNA amplification reaction. Quantitative analysis of a specific DNA sequence in a sample to be tested was conducted by internal reference method or external reference method. There is a linear relationship between the Ct value of the template and the initial copy number of the template during the exponential phase of PCR amplification, which serves as a basis for quantification.
• 1. 350 w/mL MV4-11 cells were accurately counted in a 12-well plate at 900 μL per well. • 2. […] The sample was transferred to a 1.5 mL EP tube, centrifuged at 2000 rpm for 3 min, and the supernatant was removed. […] of trizol was added for lysis and allowed to stand for 3 min. • 4. […] The supernatant was removed, and the EP tube was air-dried in a fume hood. 20-30 μL of RNase inactivated deionized water was added and mixed to measure the RNA concentration. • 8. […] 100 μL of deionized water was added to the EP tube and mixed. • 10. […]

[2] = molecular target: Human recombinant MAOA (Homo sapiens (Human), UniProt P21397); assay: MAOA in vitro activity (MAO-Glo); format: biochemical
[3] = molecular target: Human recombinant LSD1 (Homo sapiens (Human), UniProt O60341)
Source text: LSD1 In Vitro Activity Assay
Instrument: microplate reader Envision™ (PerkinElmer, USA).

[4] = test system: human acute myeloid leukemia MV4-11 subcutaneous transplantation tumor; assay: Growth of subcutaneous transplantation tumor in nude mice; format: in vivo, Balb/c nude mice; conditions: 10 mg/kg qd p.o., 21 days
Source text: Example 3 Evaluation of Chronic Efficacy at the Animal Level:
Inhibitory Effect of LSD1 Inhibitor on the Growth of Subcutaneous Transplantation Tumor in Nude Mice of Human Acute Myeloid Leukemia MV4-11 […]
Animals: Balb/c nude mice, female, weighing 17-20 g, were purchased from Beijing Weitong Lihua Experimental Animal Technology Co., Ltd., and the number of animals per group was 5.
Cell line: MV4-11 cell line was used to inoculate at the right axilla of the nude mice, and the inoculation amount was 5×10^6/animal. The experiment can start after the transplanted tumor was formed.
For female nude mice weighing 20±3 g, MV4-11 cells were inoculated into the right axilla of nude mice at a inoculation amount of 5×10^6/mouse. After tumor formation, the diameter of the transplanted tumor was measured with a vernier caliper. And after the tumor has grown into 100-300 mm^3, the animals were divided into model control group and drug-administered group according to body weight and tumor volume, with 5 mouse in each group. The model control group was given an equal amount of blank solvent. Oral gavage was used daily after grouping for 21 days.
Note: Wc: tumor weight of control group, WT: tumor weight of treatment group.
Data processing: Data were expressed as mean±standard deviation, and statistical methods were T-TEST two-tailed analysis for significant analysis.

[5] = test system: leukemia cells MV4-11; assay: Inhibitory activity on growth by MTS method; format: cell-based; conditions: Homo sapiens
Protocol: 2. Test of Inhibitory Activities of Compound on Growth by MTS Method Experimental Principle:
MTS assay detects the inhibitory effect of the tested compound to the growth of leukemia cells MV (4:11). The principle is that succinate dehydrogenase in mitochondria in living cells can reduce exogenous thiazole blue to insoluble blue crystal Formazan.
• 1. MV4-11 cells in logarithmic growth phase were accurately counted at 16000 cells/mL, and the diluted cell solution was added to 96-well plates at 90 μL per well. • 2. Fresh medium was taken and sequentially added to a 96-well plate with cell fluid at 90 μL per well. • 3. […] 2 μL of the diluted compound was respectively added to a 96-well plate containing 98 μL of blank medium, and for DMSO group, 98 μL of blank medium was added into 2 μL of DMSO, and mixed for further use. • 5. The compound mixed with the medium was separately added to a 96-well plate in which cells were plated, in triplicate, 20 μL per well, and were mixed. The blank group was added with 200 μL of IMDM medium, and the DMSO group was added with 180 μL of the cell-containing medium in DMSO diluted with the medium. • 6. […]

[6] = in vivo; conditions: mouse
[7] = molecular target: human recombinant MAOB (Homo sapiens (Human), UniProt P27338); assay: MAOB in vitro activity (MAO-Glo); format: biochemical
Sequence of human recombinant MAOB (P27338 whole entry): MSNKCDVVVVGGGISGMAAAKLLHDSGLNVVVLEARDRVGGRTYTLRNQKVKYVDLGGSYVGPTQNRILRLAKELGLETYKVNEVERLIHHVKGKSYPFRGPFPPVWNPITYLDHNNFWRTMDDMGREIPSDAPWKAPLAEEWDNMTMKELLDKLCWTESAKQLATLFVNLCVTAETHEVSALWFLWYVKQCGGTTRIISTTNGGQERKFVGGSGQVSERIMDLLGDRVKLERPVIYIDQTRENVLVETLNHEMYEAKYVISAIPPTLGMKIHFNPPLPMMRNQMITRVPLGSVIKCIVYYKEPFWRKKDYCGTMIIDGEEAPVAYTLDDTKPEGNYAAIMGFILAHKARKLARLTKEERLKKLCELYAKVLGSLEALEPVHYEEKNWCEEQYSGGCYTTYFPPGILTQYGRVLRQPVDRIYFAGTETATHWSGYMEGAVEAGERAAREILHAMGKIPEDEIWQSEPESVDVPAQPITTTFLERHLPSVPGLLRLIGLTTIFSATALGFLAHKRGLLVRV

Sequence of Human recombinant MAOA (P21397 whole entry): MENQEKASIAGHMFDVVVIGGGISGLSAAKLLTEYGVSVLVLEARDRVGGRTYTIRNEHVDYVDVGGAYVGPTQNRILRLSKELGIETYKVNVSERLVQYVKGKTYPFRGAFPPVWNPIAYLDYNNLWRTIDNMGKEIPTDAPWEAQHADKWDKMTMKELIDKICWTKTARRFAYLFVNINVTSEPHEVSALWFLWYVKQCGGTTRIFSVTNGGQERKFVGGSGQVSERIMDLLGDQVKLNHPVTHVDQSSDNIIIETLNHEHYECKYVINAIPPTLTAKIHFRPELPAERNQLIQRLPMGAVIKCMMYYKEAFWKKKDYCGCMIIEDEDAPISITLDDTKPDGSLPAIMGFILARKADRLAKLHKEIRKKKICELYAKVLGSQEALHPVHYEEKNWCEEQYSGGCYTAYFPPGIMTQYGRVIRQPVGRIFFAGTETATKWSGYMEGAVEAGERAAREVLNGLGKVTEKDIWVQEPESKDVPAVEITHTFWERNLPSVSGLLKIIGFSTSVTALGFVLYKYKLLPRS

## O=C(O)c1ccc(CN2CCC(CN[C@@H]3C[C@H]3c3ccccc3)CC2)cc1 [GSK-2879552]
[1]; MV4-11, 10 nM
  Activation ratio (10 nM): 1.79 ± 0.37
[1]; MV4-11, 100 nM
  Activation ratio (100 nM): 9.76 ± 2.23
[2]
  IC50: > 100 µM
[3]
  IC50: 1.22 ± 0.327 µM
[4]
  Tumor inhibition rate (%): 51.96%
  Tumor weight (g) mean ± SD: 0.55 ± 0.55 g
  Tumor weight (g), individual animals 1-5: 0.22 g and 1.19 g and 0.00 g and 1.25 g and 0.10 g
[5]; 72 h, MV4-11, 3 days, read-out: MTS 3 D
  IC50: > 20 µM
[5]; 240 h, MV4-11, 10 days, read-out: MTS 10 D
  IC50: 1.03 ± 0.36 µM
[6]; iv
  AUC(0-inf): 4420 ng·h/mL
  AUC(0-t): 4410 ng·h/mL
  Cmax: 7740 ng/mL
  MRT inf: 0.96 h
  Tmax: 0.083 h
  Vd: 2.18 L/kg
  clearance: 37.7 mL/min/kg
  half-life: 4.36 h
[6]; po
  AUC(0-inf): 5360 ng·h/mL
  AUC(0-t): 5350 ng·h/mL
  Cmax: 9180 ng/mL
  MRT inf: 1.18 h
  Tmax: 0.167 h
  bioavailability: 60.7%
  half-life: 4.24 h
[7]
  IC50: > 100 µM
